In patent publication US8313751B2, “Compositions and methods for the prophylaxis or treatment of viral diseases” (priority 2003, dated 2012):
“Also recorded” adds a separate entry of the source. Like-named read-outs stand apart in the source and are kept apart here.

What was measured:
[1] = system: influenza A virus strain fowl plague virus (FPV); assay type: cell-based
[2] = system: influenza virus; conditions: cited from earlier work
[3] = system: influenza A virus strain fowl plague virus (FPV); assay type: cell-based; remark: listed apart in the source
[4] = system: influenza virus (fowl plague virus, FPV); conditions: mouse, in vivo, ip
[5] = system: influenza virus (fowl plague virus, FPV); set-up: species or system C57 Bl/6 mice; conditions: mouse, in vivo

| Compound | reduction of the virus titers [1] | antiviral effectivity in vitro [1] | inhibition of the virus multiplication [1] | concentration from which inhibition of influenza virus infections in cell culture was observed [2] | concentration from which inhibition of influenza virus infections in cell culture was observed ([2]; conversion of the mM values) | inhibiting effect on virus multiplication [3] | reduction of the virus titers by a factor [3] | animals that survived the infection [4] | average survival time of the dead animals versus control group [4] | body weight [4] | animals that survived the infection [5] | antiviral effect compared with lower concentrations [5] | average survival time of the dead animals versus control group [5] | influenza virus multiplication in the lung and in the total organism [5] | viruses in the lung [5] |
| --- | --- | --- | --- | --- | --- | --- | --- | --- | --- | --- | --- | --- | --- | --- | --- |
| S=C(S)N1CCCC1 [PDTC, pyrrolidine dithiocarbamate] | approx. 10 fold |  |  |  |  |  |  |  |  |  |  |  |  |  |  |
| CC(=O)Oc1ccccc1C(=O)O [ASA, acetylsalicylic acid] |  | have not shown in vitro any antiviral effectivity | 2 log steps | 5 to 10 mM | 0.9 to 1.8 mg/mL | > 2 log steps | 10 | approx. 20% | clearly longer | distinct reduction in body weight | approx. 40% | comparatively not stronger; also recorded: clearly less antivirally effective | clearly longer | distinct inhibition | Smaller doses of ASA more clearly reduced the viruses in the lung than higher doses |
